Test results reported in patent US7767694B2, “Pharmaceutical composition having prokinetic effect” (N-Gene Research Laboratories Inc., priority 2004, dated 2010).

Tested on: sphincter of Oddi muscle rings
Assay: Biliary sphincter of Oddi muscle rings with cholecystokinin octapeptide and BGP-15 (isometric tension, organ bath)
Details: BGP-15 20 mg/kg daily for 5 days, CCK-8 5 × 10^−7 M, combination: BGP-15 pretreatment 5 days then CCK-8, average of 6
Method: The sphincter of Oddi was removed from adult male New Zealand white rabbits weighing 3.5-4 kg, and muscle ring of about 3 mm width were prepared. […] The organ bath was maintained at 37° C. and aerated continuously with carbogen (5% of carbon dioxide in oxygen according to European Pharmacopoeia, Edition III). The initial tension was set to 10 mN and the rings were allowed to equilibrate over 1 hour.
In case of each test type, 6 parallel experiments were carried out, and the average of the results obtained was determined. The following test types were made:
treatment with cholecystokinin octapeptide to simulate the effect existing in the living organism,
treatment with organ bath (control group).
In the treatment with cholecystokinin octapeptide, 5×10^-7 M of the polypeptide was employed.

Cholecystokinin octapeptide [CCK-8]
Max. relaxation (control 0): 5 mN
Max. tonic contraction (control 10): 24 mN
Frequency of contraction (control 13): 19 c/min.
Max. contraction (control 16): 29 mN
